According to the supplement of paper PMC13380429:

Tests used:
Conditions in all cases: 72 h
[1] = test system: U2OS; assay: cell viability relative to DMSO; higher = less toxic
[2] = test system: Calu-3; assay: as above
[3] = test system: Caco-2; assay: as above
[4] = test system: Vero E6; assay: as above
[5] = test system: HepG2; assay: as above
[6] = test system: U2OS; assay: drug sensitivity score (DSS) for viability; higher = more toxic; extreme values may be limits of the assay
[7] = test system: Calu-3; assay: as above
[8] = test system: Caco-2; assay: as above
[9] = test system: Vero E6; assay: as above
[10] = test system: HepG2; assay: as above
[11] = test system: U2OS; assay: relative viability EC50 (midpoint between 100% and the lowest measured viability); higher = less toxic
[12] = test system: Calu-3; assay: as above
[13] = test system: Caco-2; assay: as above
[14] = test system: Vero E6; assay: as above
[15] = test system: HepG2; assay: as above

SMILES | cell viability ([1]; 1 nM) [%] | cell viability ([1]; 10 nM) [%] | cell viability ([1]; 100 nM) [%] | cell viability ([1]; 1000 nM) [%] | cell viability ([1]; 10000 nM) [%] | cell viability ([2]; 1 nM) [%] | cell viability ([2]; 10 nM) [%] | cell viability ([2]; 100 nM) [%] | cell viability ([2]; 1000 nM) [%] | cell viability ([2]; 10000 nM) [%] | cell viability ([3]; 1 nM) [%] | cell viability ([3]; 10 nM) [%] | cell viability ([3]; 100 nM) [%] | cell viability ([3]; 1000 nM) [%] | cell viability ([3]; 10000 nM) [%] | cell viability ([4]; 1 nM) [%] | cell viability ([4]; 10 nM) [%] | cell viability ([4]; 100 nM) [%] | cell viability ([4]; 1000 nM) [%] | cell viability ([4]; 10000 nM) [%] | cell viability ([5]; 1 nM) [%] | cell viability ([5]; 10 nM) [%] | cell viability ([5]; 100 nM) [%] | cell viability ([5]; 1000 nM) [%] | cell viability ([5]; 10000 nM) [%] | drug sensitivity score [6] | drug sensitivity score [7] | drug sensitivity score [8] | drug sensitivity score [9] | drug sensitivity score [10] | relative viability EC50 [11] [µM] | relative viability EC50 [12] [µM] | relative viability EC50 [13] [µM] | relative viability EC50 [14] [µM] | relative viability EC50 [15] [µM]
COc1ccc2c3c([nH]c2c1)[C@H](CC(C)C)N1C(=O)[C@H](CCC(=O)OC(C)(C)C)NC(=O)[C@@H]1C3 [Ko143] | 98.7 | 101 | 98.1 | 100 | 94.1 | 89.8 | 100 | 97.7 | 98.6 | 97.9 | 95.7 | 99.6 | 91.8 | 91.4 | 93 | 99.3 | 96.7 | 101 | 93 | 97.7 | 101 | 86.3 | 92.5 | 85.6 | 97.9 | 0 | 0 | 0 | 0 | 0 | > 10 | > 10 | > 10 | > 10 | > 10
CN(C)c1ccc(C(=O)NCCCCCCC(=O)NO)cc1 [M-344] | 99.2 | 94.6 | 93.9 | 47.2 | 1.1 | 101 | 93.7 | 77.2 | 55.3 | 13.6 | 101 | 99.4 | 103 | 75.6 | 1.5 | 97.5 | 101 | 92.1 | 56 | 0 | 106 | 92.8 | 80.2 | 37.9 | 0.3 | 11.7 | 11.8 | 9.2 | 10.6 | 14.4 | 0.891 | 0.581 | 1.56 | 1.14 | 0.504
Cc1cccc(C#Cc2ccccc2)n1 [MPEP] | 103 | 100 | 98.6 | 103 | 94 | 91.5 | 95.5 | 88.2 | 89.6 | 91.1 | 98.7 | 94.5 | 98.1 | 102 | 95 | 98.1 | 94.9 | 96.6 | 97.1 | 95 | 98.8 | 94.6 | 101 | 101 | 103 | 0 | 0.1 | 0 | 0 | 0 | > 10 | > 10 | > 10 | > 10 | > 10
CC(=O)NCCc1c[nH]c2ccccc12 [N-acetyltryptamine] | 95.4 | 102 | 94.5 | 99.3 | 101 | 92.8 | 96 | 94.3 | 105 | 99.4 | 93.5 | 94.7 | 99.4 | 96.5 | 102 | 97 | 92.4 | 99 | 91.4 | 107 | 105 | 95.7 | 97.1 | 103 | 104 | 0 | 0 | 0 | 0 | 0 | > 10 | > 10 | > 10 | > 10 | > 10
Nc1nc(OCc2ccccc2)c2nc[nH]c2n1 [O6-benzylguanine] | 101 | 99.9 | 100 | 97.3 | 104 | 103 | 89.5 | 107 | 88.1 | 105 | 105 | 95.2 | 98 | 98.7 | 106 | 93.6 | 108 | 87.3 | 103 | 90.4 | 95.9 | 105 | 96.8 | 108 | 94.6 | 0 | 0 | 0 | 0 | 0 | > 10 | > 10 | > 10 | > 10 | > 10
O=C1C(=Cc2cccnc2)C(=O)c2ccccc21 [PRT4165] | 102 | 98.9 | 99.1 | 99.6 | 98.3 | 104 | 103 | 98.4 | 97.4 | 95.6 | 107 | 86.5 | 101 | 87.1 | 98.2 | 96.1 | 99 | 103 | 98.4 | 87.6 | 113 | 98.5 | 92.1 | 103 | 87.6 | 0 | 0 | 0 | 0.2 | 0 | > 10 | > 10 | > 10 | > 10 | > 10
COc1ccc(S(=O)(=O)Nc2nc(-c3cccc([N+](=O)[O-])c3)cs2)cc1OC [Ro-61-8048] | 98.6 | 93.5 | 99.4 | 100 | 106 | 107 | 89.5 | 103 | 97.9 | 124 | 133 | 90.8 | 110 | 124 | 95.8 | 101 | 97.2 | 85.1 | 102 | 97.9 | 107 | 86.1 | 101 | 102 | 106 | 0 | 0 | 0 | 0 | 0 | > 10 | > 10 | > 10 | > 10 | > 10
